Assays:
[1] = target: Ubiquitin carboxyl-terminal hydrolase 5 (Homo sapiens, UniProt P45974); assay: Inhibition of human 6His-tagged USP5 expressed in Escherichia coli assessed as cleavage of Ubiquitin-Rhodamine110-glycine to Ubiquitin and Rhodamine110-glycine using Ubiquitin-Rhodamine110-glycine as substrate by fluorescence based analysis
[2] = target: Ubiquitin carboxyl-terminal hydrolase 30 (Homo sapiens, UniProt Q70CQ3); assay: Inhibition of human USP30 CD (57 to 517 residues) expressed in Escherichia coli assessed as cleavage of Ubiquitin-Rhodamine110-glycine to Ubiquitin and Rhodamine110-glycine using Ubiquitin-Rhodamine110-glycine as substrate by fluorescence based analysis
[3] = target: T1, Ubiquitin carboxyl-terminal hydrolase 47 (Homo sapiens, UniProt Q96K76); assay: Inhibition of USP47 (unknown origin) by biochemical assay
T1 sequence (Q96K76 whole entry): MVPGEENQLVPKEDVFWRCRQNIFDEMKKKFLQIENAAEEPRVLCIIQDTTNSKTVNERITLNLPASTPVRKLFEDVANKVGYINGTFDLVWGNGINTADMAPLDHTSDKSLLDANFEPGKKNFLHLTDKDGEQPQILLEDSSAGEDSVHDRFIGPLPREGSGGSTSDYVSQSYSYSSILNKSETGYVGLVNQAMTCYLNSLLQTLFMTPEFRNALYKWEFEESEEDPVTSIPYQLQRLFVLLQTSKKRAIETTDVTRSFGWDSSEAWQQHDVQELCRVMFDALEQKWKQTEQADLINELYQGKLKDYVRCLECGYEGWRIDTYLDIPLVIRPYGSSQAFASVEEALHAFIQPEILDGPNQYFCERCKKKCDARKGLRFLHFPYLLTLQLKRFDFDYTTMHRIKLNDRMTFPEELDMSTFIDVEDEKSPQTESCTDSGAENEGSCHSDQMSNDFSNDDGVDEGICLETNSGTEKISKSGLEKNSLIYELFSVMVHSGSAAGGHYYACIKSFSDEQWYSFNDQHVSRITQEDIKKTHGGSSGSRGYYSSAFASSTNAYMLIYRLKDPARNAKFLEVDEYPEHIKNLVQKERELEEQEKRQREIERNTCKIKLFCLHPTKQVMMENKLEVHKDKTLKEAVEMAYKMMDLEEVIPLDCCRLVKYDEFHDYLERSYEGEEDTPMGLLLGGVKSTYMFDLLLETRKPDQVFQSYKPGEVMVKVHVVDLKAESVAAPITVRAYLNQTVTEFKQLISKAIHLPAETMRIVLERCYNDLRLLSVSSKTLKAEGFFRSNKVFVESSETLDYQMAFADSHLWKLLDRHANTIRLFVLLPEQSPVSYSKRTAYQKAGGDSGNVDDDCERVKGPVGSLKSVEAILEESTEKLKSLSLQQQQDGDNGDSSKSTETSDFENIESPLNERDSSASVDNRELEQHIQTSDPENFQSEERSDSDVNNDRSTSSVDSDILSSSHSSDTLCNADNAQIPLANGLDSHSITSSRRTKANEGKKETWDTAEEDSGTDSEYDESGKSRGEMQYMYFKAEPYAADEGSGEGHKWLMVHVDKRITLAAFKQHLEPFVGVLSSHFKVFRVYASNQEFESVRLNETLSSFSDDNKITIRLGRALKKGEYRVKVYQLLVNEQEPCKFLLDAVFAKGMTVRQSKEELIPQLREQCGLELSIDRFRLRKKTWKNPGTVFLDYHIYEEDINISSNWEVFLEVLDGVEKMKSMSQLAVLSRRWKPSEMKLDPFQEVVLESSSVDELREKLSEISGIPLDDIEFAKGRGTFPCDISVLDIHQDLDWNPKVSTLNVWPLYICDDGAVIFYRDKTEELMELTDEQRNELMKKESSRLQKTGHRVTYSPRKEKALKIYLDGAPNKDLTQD

[4] = AUC in Sprague-Dawley rat at 2 mg/kg, po; format: ADME, organism-based; settings: in vivo
[5] = target: Ubiquitin carboxyl-terminal hydrolase 27 (Homo sapiens, UniProt A6NNY8); assay: Inhibition of human DAC-tagged USP27X expressed in Escherichia coli assessed as cleavage of […]-linked di-ubiquitin to mono-ubiquitin using di-ubiquitin as substrate by mass spectrometry
Homo sapiens = organism: Homo sapiens; assay: Selectivity index, ratio of IC50 for human GST-tagged VCPIP CD (25 to 561 residues) expressed in Escherichia coli assessed as cleavage of Ubiquitin-Rhodamine110-glycine to Ubiquitin and Rhodamine110-glycine using Ubiquitin-Rhodamine110-glycine as substrate by fluorescence based analysis to IC50 for inhibition of recombinant full length USP7 (unknown origin) using ubiquintin-rhodamine as substrate preincubated for 30 mins followed by substrate addition measured after 1 hr by fluorescence-based Envision plate reader assay

Ubiquitin carboxyl-terminal hydrolase 30, sequence (Q70CQ3 whole entry, the tested form may be a part): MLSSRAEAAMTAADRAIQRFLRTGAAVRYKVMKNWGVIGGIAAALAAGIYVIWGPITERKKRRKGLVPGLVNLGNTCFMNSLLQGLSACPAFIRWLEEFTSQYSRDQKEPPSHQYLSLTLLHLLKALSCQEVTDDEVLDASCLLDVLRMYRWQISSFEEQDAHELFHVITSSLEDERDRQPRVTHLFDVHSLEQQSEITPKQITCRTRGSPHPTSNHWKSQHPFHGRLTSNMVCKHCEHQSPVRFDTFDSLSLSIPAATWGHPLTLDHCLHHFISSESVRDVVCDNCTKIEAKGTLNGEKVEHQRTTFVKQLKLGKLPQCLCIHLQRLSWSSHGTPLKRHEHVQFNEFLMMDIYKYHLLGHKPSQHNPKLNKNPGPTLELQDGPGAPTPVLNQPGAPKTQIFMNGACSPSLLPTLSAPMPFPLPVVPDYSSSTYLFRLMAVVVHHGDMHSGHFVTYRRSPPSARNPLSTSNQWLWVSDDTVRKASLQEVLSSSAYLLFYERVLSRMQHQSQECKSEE
Ubiquitin carboxyl-terminal hydrolase 27, sequence (A6NNY8 whole entry, the tested form may be a part): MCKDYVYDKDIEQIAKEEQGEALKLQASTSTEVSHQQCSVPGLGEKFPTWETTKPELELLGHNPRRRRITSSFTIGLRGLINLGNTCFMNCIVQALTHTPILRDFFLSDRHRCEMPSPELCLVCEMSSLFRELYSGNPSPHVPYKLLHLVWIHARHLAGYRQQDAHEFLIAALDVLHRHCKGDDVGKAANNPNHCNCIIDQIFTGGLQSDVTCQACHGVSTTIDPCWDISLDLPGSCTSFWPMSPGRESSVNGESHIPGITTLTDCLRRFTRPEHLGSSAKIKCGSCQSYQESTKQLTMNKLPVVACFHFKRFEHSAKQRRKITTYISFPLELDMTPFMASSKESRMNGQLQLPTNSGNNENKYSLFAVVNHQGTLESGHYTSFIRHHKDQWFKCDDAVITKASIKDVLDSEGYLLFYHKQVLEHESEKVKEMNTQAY
Ubiquitin carboxyl-terminal hydrolase 5, sequence (P45974 whole entry, the tested form may be a part): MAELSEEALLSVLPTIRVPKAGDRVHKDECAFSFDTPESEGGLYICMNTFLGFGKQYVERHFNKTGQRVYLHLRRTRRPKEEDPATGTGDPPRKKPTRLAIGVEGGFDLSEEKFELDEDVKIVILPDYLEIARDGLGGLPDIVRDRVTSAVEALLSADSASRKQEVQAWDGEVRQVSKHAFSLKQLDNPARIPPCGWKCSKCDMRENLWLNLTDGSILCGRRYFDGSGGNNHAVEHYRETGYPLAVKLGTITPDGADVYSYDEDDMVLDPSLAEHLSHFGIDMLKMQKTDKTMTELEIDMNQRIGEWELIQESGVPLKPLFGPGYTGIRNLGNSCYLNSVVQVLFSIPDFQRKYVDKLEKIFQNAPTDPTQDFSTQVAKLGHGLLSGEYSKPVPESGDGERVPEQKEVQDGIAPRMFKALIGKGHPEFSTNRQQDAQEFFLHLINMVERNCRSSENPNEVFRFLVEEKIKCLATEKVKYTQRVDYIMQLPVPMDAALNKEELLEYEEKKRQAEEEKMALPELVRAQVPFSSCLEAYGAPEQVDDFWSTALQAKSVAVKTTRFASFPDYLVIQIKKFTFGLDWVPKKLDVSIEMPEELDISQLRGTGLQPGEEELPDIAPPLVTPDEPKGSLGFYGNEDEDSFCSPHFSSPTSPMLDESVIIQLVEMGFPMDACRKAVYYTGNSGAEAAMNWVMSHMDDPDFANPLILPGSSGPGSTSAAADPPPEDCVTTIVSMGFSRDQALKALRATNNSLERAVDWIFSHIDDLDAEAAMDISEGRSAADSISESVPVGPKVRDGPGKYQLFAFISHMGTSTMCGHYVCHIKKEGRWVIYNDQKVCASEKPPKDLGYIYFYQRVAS

IC50 [1]: > 10 µM
IC50 [2]: > 10 µM
IC50 [3]: > 10 µM
AUC [4]: 4700 ng·h/mL
IC50 [5]: > 10 µM
Ratio IC50 (Homo sapiens): > 50000
Structure (SMILES): Cc1cc(Cl)cc(-c2ccnc3cc(CN4C(=O)C5C(C4=O)C5(C)C)sc23)c1O[C@@H]1CCNC[C@@H]1C (stereo partly specified)

Reference: ChEMBL document CHEMBL4602719, “Discovery of Potent, Selective, and Orally Bioavailable Inhibitors of USP7 with In Vivo Antitumor Activity” (J Med Chem, 2020)
